Measured values as given in ChEMBL document CHEMBL5728088, “Aryl sulfonohydrazides” (2020).

Experiment: Biochemical Assay: Active Moz protein was expressed as N-terminal fusion protein with a His6 tag in BL21 E. coli cells. Protein purification was performed via nickel-immobilized metal ion affinity chromatography followed by gel filtration. […] The reactions were performed in assay buffer (100 mM Tris-HCl, pH 7.8, 15 mM NaCl, 1 mM EDTA, 0.01% Tween-20, 1 mM Dithiothreitol, and 0.02% m/v chicken egg white albumin). Reactions were set up with 0.4 μM Acetyl coenzyme A (AcCoA), 50 nM N-terminal histone H4 peptide (sequence […]-GGK-biotin), 10 nM MOZ enzyme, and an acetyl-lysine specific antibody (final dilution 1:10000). 11-point dilution series of the compounds of the invention were prepared in DMSO; a volume of 100 nL was transferred using a pin tool into assay plates containing substrates, before adding enzyme to start the reaction. Positive (no compound) and negative (AcCoA omitted) control reactions were included on the same plates and received the same amount of DMSO as the compound treated wells. After adding all reagents, the plates were sealed with adhesive seals and incubated for 90 minutes at room temperature. An additional 4 μL of assay buffer containing AlphaScreen® Protein A acceptor beads and Streptavidin donor beads (PerkinElmer, Waltham, Mass.) to a final concentration of 4 μg/mL was then added. […]

| IC50 | Structure (SMILES) |
| --- | --- |
| 13.1 µM | O=C(NNS(=O)(=O)c1ccc2ccccc2c1)c1cccc(-c2cccnc2)c1 |
| 0.839 µM | O=C(NNS(=O)(=O)c1ccccc1F)c1cc(-c2ccc(F)cc2)ccc1F |
